# Experimental data reported in US20240254087A1, “SELECTIVE, PARTIAL, AND ARRESTIN-BIASED 5-HT2A AGONISTS WITH UTILITY IN VARIOUS DISORDERS” (Saint Joseph's University, priority 2021, published 2024).
# Entries after “also recorded” stand apart in the source; their conditions may differ. Where a name gives a salt, the structure may show the parent alone. Read-outs that look alike come from different tables or passages of the source.
# Experiments:
# 5-HT2B [1] = target: T1, 5-HT2B (Homo sapiens, UniProt P41595); assay: BRET Gq dissociation, 5-HT2B; assay type: cell-based; design: expressed in transfected cells; host or cells: HEK293T, transient; conditions: for Emax: read-out: 5-HT2B Gq Dissociation (BRET) EMAX ± SEM (%5-HT)
# 5-HT2C [2] = target: T2, 5-HT2C (Homo sapiens, UniProt P28335); assay: BRET Gq dissociation, 5-HT2C; assay type: cell-based; design: expressed in transfected cells; host or cells: HEK293T, transient; conditions: for Emax: read-out: 5-HT2C Gq Dissociation (BRET) EMAX ± SEM (%5-HT)
# T2 sequence (P28335 33-458): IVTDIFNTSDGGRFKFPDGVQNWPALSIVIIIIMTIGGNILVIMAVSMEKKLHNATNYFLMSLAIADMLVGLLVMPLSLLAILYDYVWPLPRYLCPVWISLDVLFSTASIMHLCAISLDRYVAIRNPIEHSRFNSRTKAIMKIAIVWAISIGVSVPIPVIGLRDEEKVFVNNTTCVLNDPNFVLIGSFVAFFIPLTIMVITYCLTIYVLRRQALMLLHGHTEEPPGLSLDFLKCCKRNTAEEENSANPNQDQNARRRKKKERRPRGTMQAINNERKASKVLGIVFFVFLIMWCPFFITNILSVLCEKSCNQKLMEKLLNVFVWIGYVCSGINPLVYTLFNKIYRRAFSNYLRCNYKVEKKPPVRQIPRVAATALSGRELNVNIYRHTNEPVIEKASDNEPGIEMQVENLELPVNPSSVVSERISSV
# 5-HT2A [3] = target: 5-HT2A (Homo sapiens, UniProt P28223); assay: Ca2+ flux assay, 5-HT2A; assay type: cell-based; design: expressed in transfected cells; conditions: for Emax: read-out: 5-HT2A Emax % 5-HT, Ca2+ flux
# Experimental: (§1) Cell lines were maintained in DMEM containing 10% FBS, 10 μg/mL Blasticidin (Invivogen), and 100 μg/mL Hygromycin B (GoldBio). At least 20-24 hours before the assay, receptor expression was induced with tetracycline ([…]) and cells were seeded into 384-well poly-L-lysine-coated black plates at a density of 7,500 cells/well in DMEM containing 1% dialyzed FBS. On the day of the assay, the cells were incubated for 1 h at 37° C. with Fluo-4 Direct dye (Invitrogen, 20 μl/well) reconstituted in drug buffer (20 mM HEPES-buffered HBSS, pH 7.4) containing 2.5 mM probenecid. Drug dilutions were prepared at 5X final concentration in McCorvy buffer (20 mM HEPES-buffered HBSS, 0).1% BSA, 0.01% ascorbic acid pH 7.4). After dye load, cells were allowed to equilibrate to room temperature for 15 minutes, and then placed in a FLIPR^TETRA fluorescence imaging plate reader (Molecular Devices). Fluorescence for the FLIPR^TETRA were programmed to read baseline fluorescence for 10 s (1 read/s), and afterward 5 μl of drug per well was added and read for a total of 5-10 min (1 read/s). Fluorescence in each well was normalized to the average of the first 10 reads for baseline fluorescence, and then either maximum-fold peak increase over basal or area under the curve (AUC) was calculated. […] Data was plotted and non-linear regression was performed using “log(agonist) vs. response” in Graphpad Prism 8 to yield Emax and EC50 parameter estimates.
# 5-HT2A [4] = assay: Ca2+ flux assay, 5-HT2A; assay type: cell-based, human; conditions: Gq/11 Ca2+ mobilization; higher number = skewed towards 5-HT2A
# Experimental: as §1
# 5-HT2B [5] = target: T1, 5-HT2B; assay: Ca2+ flux assay, 5-HT2B; assay type: cell-based; design: expressed in transfected cells; conditions: Ca2+ flux; for Emax: read-out: 5-HT2B Emax % 5-HT
# Experimental: as §1
# 5-HT2C [6] = target: T2, 5-HT2C; assay: Ca2+ flux assay, 5-HT2C; assay type: cell-based; design: expressed in transfected cells; conditions: for EC50: 5-HT2C EC50, nM; for Emax: read-out: 5-HT2C Emax % 5-HT
# Experimental: as §1
# male C57BL/6J mice = assay: Head-twitch response (HTR) in mice; assay type: in vivo, mouse; conditions: for ED50: Mus musculus
# Experimental: Male C57BL/6J mice (6-8 weeks old) from Jackson Labs (Bar Harbor, ME, USA) were used for the behavioral experiments. The mice were housed on a reversed light-dark cycle (lights on at 1900 h, off at 0700 h) in an AAAC-approved vivarium at the University of California San Diego. Mice were housed up to four per cage in a climate-controlled room and with food and water provided ad libitum except during behavioral testing. Testing was performed between 1000 and 1800 h (during the dark phase of the light-dark cycle). The studies were conducted in accordance with National Institutes Health (NIH) guidelines and were approved by the University of California San Diego Institutional Animal Care and Use Committee.
# The mice were allowed to recover from the magnet implantation surgeries for at least 1 week prior to behavioral testing. HTR experiments were conducted in a well-lit room, and the mice were allowed to habituate to the room for at least 1 h prior to testing. Head twitches was assessed in a 12-cm diameter glass cylinder surrounded by a magnetometer coil. Coil voltage was low-pass filtered (2 kHz), amplified, and digitized (20-kHz sampling rate) using a Powerlab/8SP with LabChart v 7.3.2 (ADInstruments, Colorado Springs, CO, USA). […] HTR counts were analyzed using one-way ANOVAs. Dunnett's test was used for post hoc comparisons.
# [7] = read-out: HTR ED50 μmol/kg (95% CI), SC, except DOI and 25D-NBOMe IP
# [8] = read-out: HTR ED50 mg/kg (95% CI), SC, except DOI and 25D-NBOMe IP
# Chain of 5-HT2A (Homo sapiens, UniProt P28223) (P28223 whole entry): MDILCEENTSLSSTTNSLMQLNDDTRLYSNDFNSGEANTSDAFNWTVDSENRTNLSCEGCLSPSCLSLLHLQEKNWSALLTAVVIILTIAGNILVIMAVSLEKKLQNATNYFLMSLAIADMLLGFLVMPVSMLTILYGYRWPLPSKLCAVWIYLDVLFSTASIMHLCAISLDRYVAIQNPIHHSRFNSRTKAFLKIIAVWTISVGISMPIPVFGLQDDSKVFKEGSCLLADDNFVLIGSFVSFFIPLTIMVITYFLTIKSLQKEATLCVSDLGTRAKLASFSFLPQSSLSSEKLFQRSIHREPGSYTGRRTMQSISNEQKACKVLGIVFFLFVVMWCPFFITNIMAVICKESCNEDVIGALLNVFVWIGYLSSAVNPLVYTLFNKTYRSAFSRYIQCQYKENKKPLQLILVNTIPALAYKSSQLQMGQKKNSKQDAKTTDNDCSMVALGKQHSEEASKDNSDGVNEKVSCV
# T1 sequence (P41595 whole entry): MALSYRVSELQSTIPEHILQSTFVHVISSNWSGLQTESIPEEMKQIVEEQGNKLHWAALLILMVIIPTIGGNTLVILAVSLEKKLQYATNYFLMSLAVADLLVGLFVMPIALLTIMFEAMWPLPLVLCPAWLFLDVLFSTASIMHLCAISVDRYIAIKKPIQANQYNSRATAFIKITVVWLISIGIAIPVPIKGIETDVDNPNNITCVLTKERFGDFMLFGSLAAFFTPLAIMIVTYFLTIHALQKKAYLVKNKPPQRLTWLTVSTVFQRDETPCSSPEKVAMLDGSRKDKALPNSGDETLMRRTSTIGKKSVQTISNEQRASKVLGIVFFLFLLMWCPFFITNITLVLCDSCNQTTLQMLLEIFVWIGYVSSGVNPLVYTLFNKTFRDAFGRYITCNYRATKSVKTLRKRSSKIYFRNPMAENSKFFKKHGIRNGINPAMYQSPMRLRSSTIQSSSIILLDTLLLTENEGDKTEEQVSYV
Compound,melting point [°C],"EC50 (5-HT2A [3]; 5-HT2A EC50, nM, Ca2+ flux) [nM]",Emax (5-HT2A [3]) [%],5-HT2A/5-HT2c Selectivity Factor ΔLog(Emax/EC50) (5-HT2A [4]),"5-HT2B EC50, nM (5-HT2B [5])",Emax (5-HT2B [5]) [%],EC50 (5-HT2C [6]) [nM],Emax (5-HT2C [6]) [%],Max HTR response during a 30-min assessment (maximum counts ÷ baseline response) (male C57BL/6J mice),ED50 (male C57BL/6J mice; [7]) [µmol/kg],ED50 (male C57BL/6J mice; [8]) [mg/kg],further results
"COc1cc([N+](=O)[O-])c(OC)cc1CCNCc1ccccc1O (as salt: HCl) [25N-NBOH (3), 2-({[2-(2,5-dimethoxy-4-nitrophenyl)ethyl]amino}methyl)phenol]",205 to 206.7,–,–,–,–,–,–,–,–,–,–,–
"COc1cc([N+](=O)[O-])c(OC)cc1CCNCc1cccc(O)c1 (as salt: HCl) [25N-NB-3-OH (21), 3-({[2-(2,5-dimethoxy-4-nitrophenyl)ethyl]amino}methyl)phenol]",194 to 195.5,–,–,–,–,–,–,–,–,–,–,–
"COc1cc([N+](=O)[O-])c(OC)cc1CCNCc1cccc(F)c1OC (as salt: HCl) [25N-NB-2-MeO-3-F (19), [2-(2,5-dimethoxy-4-nitrophenyl)ethyl][(3-fluoro-2-methoxyphenyl)methyl]amine]",155 to 156.7,–,–,–,–,–,–,–,–,–,–,–
"COc1cc(OC)c(OC)cc1CCNCc1ccccc1-c1cccs1 (as salt: HCl) [(59), N-(2-(thiophen-2-yl)benzyl)-2-(2,4,5-trimethoxyphenyl)-ethan-1-amine]",158.4 to 159.8,–,–,–,–,–,–,–,–,–,–,–
COc1cc(Br)cc(OC)c1CC(C)NCc1cccc2ccccc12 (stereo not drawn) (as salt: HCl) [(33)],207.9 to 209.2,–,–,–,–,–,–,–,–,–,–,–
"COc1cc(Br)c(CCNCc2cccc(C)c2O)cc1OC (as salt: HCl) [(43), 2-(((2-bromo-4,5-dimethoxyphenethyl)-amino)-methyl)-6-methylphenol]",169.4 to 169.9,–,–,–,–,–,–,–,–,–,–,–
"COc1cc([N+](=O)[O-])c(OC)cc1CCNCc1ccc(C)cc1 (as salt: HCl) [25N-NB-4-Me (23), [2-(2,5-dimethoxy-4-nitrophenyl)ethyl] [(4-methylphenyl)methyl]amine]",182 to 184,–,–,–,–,–,–,–,–,–,–,–
COc1cc([N+](=O)[O-])c(OC)cc1CCNCc1ccccc1F [25N-NBF (7)],–,1.56,84 ± 1,18.9,No activity,< 10,28.8,82 ± 2,4.5-fold increase,4.1,1.52,EC50 (5-HT2B [1]): 75.9 nM; Emax (5-HT2B [1]): 24.8 ± 3.2%; EC50 (5-HT2C [2]): 14.1 nM; Emax (5-HT2C [2]): 83.1 ± 2.1%
"COc1cc([N+](=O)[O-])c(OC)cc1CCNCc1cccc(C)c1O (as salt: HCl) [25N-NB-2-OH-3-Me (18), 2-({[2-(2,5-dimethoxy-4-nitrophenyl)ethyl]amino}methyl)-6-methylphenol]",177.6 to 179.5,–,–,–,–,–,–,–,–,–,–,–
"COc1cc([N+](=O)[O-])c(OC)cc1CCNCc1ccc(F)cc1 (as salt: HCl) [25N-NB-4-F (25), [2-(2,5-dimethoxy-4-nitrophenyl)ethyl][(4-fluorophenyl)methyl]amine]",180 to 181,–,–,–,–,–,–,–,–,–,–,–
COc1cc([N+](=O)[O-])c(OC)cc1CCNCc1ccccc1Br [25N-NBBr (9)],–,2.36,79 ± 2,61.9,No activity,< 10,144,78 ± 2,4.7-fold increase,14.6,6.31,EC50 (5-HT2B [1]): 245 nM; Emax (5-HT2B [1]): 17 ± 2.1%; EC50 (5-HT2C [2]): 30.9 nM; Emax (5-HT2C [2]): 81 ± 2.3%
"COc1cc([N+](=O)[O-])c(OC)cc1CCNCc1cccc2c1OC(F)(F)O2 (as salt: HCl) [25N-NBMDF2 (13), [(2,2-difluoro-2H-1,3-benzodioxol-4-yl)methyl][2-(2,5-dimethoxy-4-nitrophenyl)ethyl]amine]",208.4 to 209.8,–,–,–,–,–,–,–,–,–,–,–
COc1cc(OC)c(OC)cc1CCNC(C)c1cccc2ccccc12 (stereo not drawn) (as salt: HCl),195.2 to 196.4,–,–,–,–,–,–,–,–,–,–,–
"COc1cc([N+](=O)[O-])c(OC)cc1CCNCc1ccccc1O [25N-NBOH (3), 2-({[2-(2,5-dimethoxy-4-nitrophenyl)ethyl]amino}methyl)phenol]",–,–,87 ± 2,4.9,No activity,< 10,1.78,100 ± 2,8.8-fold increase,0.19,0.07,"EC50 (5-HT2A [3]; 5-HT2A (pEC50 ± SEM), Ca2+ flux): 0.316 nM"
COc1cc([N+](=O)[O-])c(OC)cc1CCNCc1ccccc1C [25N-NBMe (6)],–,1.19,85 ± 1,26.7,No activity,< 10,33.2,89 ± 2,8.0-fold increase,3.24,1.19,EC50 (5-HT2B [1]): 9.55 nM; Emax (5-HT2B [1]): 22.2 ± 3.2%; EC50 (5-HT2C [2]): 11.5 nM; Emax (5-HT2C [2]): 89.4 ± 2.3%
COc1cc([N+](=O)[O-])c(OC)cc1CCNCc1ccccc1Cl [25N-NBCl (8)],–,2.03,80 ± 2,43.3,No activity,< 10,89.3,81 ± 2,2.3-fold increase,10.4,4.04,EC50 (5-HT2B [1]): 204 nM; Emax (5-HT2B [1]): 27 ± 3%; EC50 (5-HT2C [2]): 21.4 nM; Emax (5-HT2C [2]): 82.5 ± 2.8%
CCOc1ccccc1CNCCc1cc(OC)c([N+](=O)[O-])cc1OC [25N-NBOEt (5)],–,0.72,87 ± 2,1.0,No activity,< 10,0.88,99 ± 1,13.2-fold increase,1.44,0.57,–
"COc1cc([N+](=O)[O-])c(OC)cc1CCNCc1ccccc1OC(F)F [25N-NBOCF2H (11), {[2-(difluoromethoxy)phenyl]methyl}[2-(2,5-dimethoxy-4-nitrophenyl)ethyl]amine]",–,1.92,≤ 77,1.9,No activity,< 10,3.99,101 ± 1,13.5-fold increase,4.32,1.81,5-HT2A Emax % 5-HT (5-HT2A [3]; Ca2+ flux): 95 ± 1 % 5-HT; Induction of the HTR in mice (in words) (male C57BL/6J mice): lacked a HTR; also recorded: failed to induce a HTR
